Read-outs that look alike come from different tables or passages of the source. Marks after values point to notes of the source that are not given here.
Columns and labels:
[1] = system: spontaneously hypertensive rat; details: in food
Excerpt: Male spontaneously hypertensive rats (=SHR; insulin resistant strain from Charles River; aged 6 months) were equipped with telemetry transmitters for continuous monitoring of blood pressure and heart rate (TA11PA-C40, DSI, USA). Telemetry transmitters for continuous monitoring of blood pressure, heart rate and locomotor activity (TA11PA-C40, Data Sciences, USA) were implanted intraabdominally under inhalative halothane anesthesia. A midline abdominal incision was made, and the abdominal aorta was visualized by removal of retroperitoneal fat and connective tissue. A ligature was placed caudal of the renal arteries, the aorta was punctured with a 22G needle, and the catheter was advanced into the aorta. The entry point was sealed with tissue adhesive (Vetbond™, 3M, USA), the ligature was removed, and the abdominal incision was closed. Measurements of aortic pressure were taken every 5 minutes (=min) for 4 seconds (=s) each at a sampling rate of 500 Hz, and were corrected for the corresponding ambient pressure (ambient pressure monitor, C11PR, Data Sciences, USA).
In a further study performed with a new batch of SHR equipped with telemetry-transmitters as described above, the animals were divided into two groups receiving the HMG CoA reductase inhibitor atorvastatin or a combination of atorvastatin+daglutril. Compounds were mixed into the food, and the daily drug intake was measured by weighing the unconsumed food four times weekly. Intended daily doses were 40 mg/kg/day of atorvastatin and in addition, in the combination group, 100 mg/kg/day of daglutril.
Concentrations of atorvastatin and daglutril in the food were adjusted once per week.
For the statistical analysis, the effects of atorvastatin and atorvastatin+daglutril were calculated by subtracting the baseline value (pre) measured on the last day prior to the start of treatment (day 3) from that measured on day 25 (i.e. on the penultimate day of the treatment period) for each animal. The statistical comparison was done by using a two-sided unpaired Student's t-test.

[2] = system: spontaneously hypertensive rat; assay: Telemetric blood pressure and heart rate in SHR; daglutril, simvastatin or simvastatin+daglutril via drinking water; assay type: in vivo; details: for DBP, change from baseline / HR, change from baseline / SBP, change from baseline: 24 h mean, day 23 minus baseline (day 3), intended 40 mg/kg/day simvastatin, 100 mg/kg/day daglutril, n = 4-5
Protocol: In a first experiment, after 3 days of monitoring under baseline (untreated) conditions, animals received daglutril via the drinking water. The intended daily dose was 100 mg/kg/day of daglutril. The concentration in drinking water was adjusted once per week, resulting in an average drug intake of 98 mg/kg/day.
Concentrations of simvastatin and daglutril in the drinking water were adjusted once per week, in order to ensure the intended daily intake of 40 and 100 mg/kg, respectively. The average daily water intake amounted to 33 and 36 ml/kg in the simvastatin and simvastatin+daglutril group, respectively, resulting in the uptake of 36 mg/kg/day of simvastatin in the simvastatin group, and 37 mg/kg/day of simvastatin and 93 mg/kg/day of daglutril in the combination group.
These 24 h means were exported to Excel®, and group mean values of systolic (SBP), diastolic blood pressure (DBP), heart rate (HR), and locomotor activity (ACT) were calculated daily. For the statistical analysis, the effects of simvastatin and simvastatin+daglutril were calculated by subtracting the baseline value (pre) measured on the last day prior to compound application (day 3) from that value measured on day 23 (i.e. on the penultimate day of the treatment period) for each animal. The statistical comparison was done by using univariate ANOVA at an error level of P<0.05.

[3] = system: human subjects with congestive heart failure; assay: Single dose study of oral daglutril during 12-hour right heart catheterization; subgroup analysis by concomitant HMG CoA reductase inhibitor; assay type: in vivo; details: CHF patients, single oral dose of daglutril (200, 400 or 800 mg groups), with or without concomitant HMG CoA reductase inhibitor; value (SE)
Protocol: A randomized, placebo-controlled, parallel group, multi-center, single dose study of oral daglutril (vide supra) during 12-hour right heart catheterization in human subjects with congestive heart failure (=CHF) was performed. Each subject received one dose of daglutril or placebo. The study consisted of three visits (or study days when in-subjects were included). Ambulatory subjects were in hospital for two nights and one day. […]
The primary efficacy parameter was the maximum decrease from baseline over 6 hours for SVR and was compared between treatment groups using analysis of covariance, with the baseline value as covariate and center and NYHA classification as factors. […] In addition, the existence of a dose-response relationship for daglutril was evaluated by investigating linear, quadratic and cubic contrasts. The secondary efficacy parameter was the maximum change from baseline over 6 hours for PCWP and was analyzed in the same way as the primary variable. The maximum decrease from baseline over 12 hours, the change from for each individual time point and the adjusted area under the curve (=AUC) over 6 and 12 hours were analyzed for SVR and PCWP, using similar statistical methodology as for the main parameter of interest. […]

[4] = 24 h mean, day 25 minus baseline (day 3), intended 40 mg/kg/day atorvastatin, 100 mg/kg/day daglutril, n = 6

| Compound | DBP, change from baseline [1, 4] [mmHg] | HR, change from baseline [1, 4] [min⁻¹] | SBP, change from baseline [1, 4] [mmHg] | Effect on blood pressure (both SBP and DBP) (in words) ([1]; SHR) | DBP, change from baseline [2] | HR, change from baseline [2] [min⁻¹] | SBP, change from baseline [2] | Placebo corrected mean change of MPAP (average 0.5-6 hrs) [3] | Effect on blood pressure (in words) ([2]; SHR) |
| --- | --- | --- | --- | --- | --- | --- | --- | --- | --- |
| CC(C)c1c(C(=O)Nc2ccccc2)c(-c2ccccc2)c(-c2ccc(F)cc2)n1CC[C@@H](O)C[C@@H](O)CC(=O)O [Atorvastatin, atorvastatin] | 3.2 | -25.3 | 3.5 | increase in blood pressure |  |  |  |  |  |
| CCC(C)(C)C(=O)O[C@H]1C[C@@H](C)C=C2C=C[C@H](C)[C@H](CC[C@@H]3C[C@@H](O)CC(=O)O3)[C@H]21 [Simvastatin, simvastatin] |  |  |  |  | 4.7 mmHg | -4.2 | 4.2 mmHg |  |  |
| CCOC(=O)C(CCc1ccccc1)CC1(C(=O)NC2CCc3ccccc3N(CC(=O)O)C2=O)CCCC1 (stereo not drawn) [daglutril, 2-[1-(1-carboxymethyl-2-oxo-2,3,4,5-tetrahydro-1H-benzo[b]azepin-3-ylcarbamoyl)-cyclopentylmethyl]-4-phenyl-butyric acid ethyl ester] |  |  |  |  | 2.0* mmHg | -6.0 | −0.3* mmHg | −2.26 (1.05) mm Hg | no effect on blood pressure |

Reference: patent US7816347B2, “Pharmaceutical compositions comprising NEP-inhibitors, inhibitors of the endogenous endothelin producing system and HMG CoA reductase inhibitors” (Solvay Pharmaceuticals GmbH, priority 2004, dated 2010)
